Results on one molecule are retold here after PMC6015222, “Targeting Phosphopeptide Recognition by the Human BRCA1 Tandem BRCT Domain to Interrupt BRCA1-Dependent Signaling” (Cell Chemical Biology, 2018).

SMILES strings stand for the structures. Entries after “also recorded” stand apart in the source; their conditions may differ.

One assay deals with RPA32 foci. The assay can be described thus: Radiation-induced nuclear RPA32 foci. The assay is classed as cell-based, human. The settings on record: 100 μM, 16 Gy, as Figure 5A. The procedure: (§1) HEK293 cells stably harboring plasmids for Tet-inducible expression of tBRCT domains were seeded at 30,000 cells/well on Matrigel-coated 96-well plates, and treated as indicated. Cells were fixed in 2.5% PFA, for 20’ at RT and incubated in 1x PBS with 10% FBS plus 0.5% TritonX-100 for 1 h for blocking and permeabilization. Primary antibody staining was performed at the indicated dilutions in PBST-BSA buffer (0.7mg/ml BSA, 0.05% Tween-20 in 1XPBS) for 1h at RT. Cells were then extensively washed in PBST-BSA buffer and stained with goat-anti-mouse Alexa 488 secondary antibody (Invitrogen), at 1:1000 dilution along with 2.5μg/ml DAPI for nuclear staining. […] Images were acquired on a high-content imaging platform (Cellomics ArrayScan VTI HCS Reader (Thermo Fisher Scientific)) using a 40x objective. On average ∼800 fields from 6-well replicates, containing a total of ∼10-20K cells were imaged per treatment group and quantified using image analysis software (in-house algorithms using MatLab and commercially available HCS studio 2.0 from Thermo Fisher Scientific). […] Cut-off values for foci number per cell specifying the maximal difference between control and irradiated samples were determined to calculate the percentage of cells positive for radiation-induced foci. […]

The target of a further assay is T1, TOPBP1 BRCT 1/2 (Homo sapiens, UniProt Q92547).
T1 construct: TOPBP1 BRCT 1/2 residues 1-290; 6x His (N); made in house; host or cells: E. coli BL21(DE3)
Description: Competitive MST selectivity: TOPBP1 1/2. It counts as binding. The procedure: Protein domains used in the assay were labeled with NT-647-NHS fluorescent dye using the Monolith NT™ Protein Labeling Kit (NanoTemper Technologies). Assays were carried out in 20mM Tris buffer, pH 7.4, with 200mM NaCl, 0.05% Tween-20 and 2mM DTT. For the direct binding assay, 10μl of labeled protein at a final concentration of 20nM was mixed with 10μl of test compound and incubated on ice for 10 min. For the competitive assay, 10μl of labeled protein at a final concentration of 20nM was mixed with 2μM cognate peptide substrate at the EC80 concentration determined by prior titration using a 16-point serial dilution by direct-binding MST. For both assays, samples prepared as above were centrifuged at 15000 rpm at 4°C for 10 min and 4μl of the supernatant was loaded into premium glass capillaries (NanoTemper Technologies). MST analysis was performed at MST power of 40% and LED power of 80%, at 22°C temperature using a Monolith NT.115 (NanoTemper Technologies). An initial “Capillary Scan” was performed to scan for fluorescence across the length of the capillary tray to determine the exact position of each capillary before the MST measurement was started. Test compounds were assayed at 16 different concentrations by serial dilution, and data were analysed using NanoTemper analysis software. Kd values were determined using “T-jump + Thermophoresis” settings. […]

The target of a further assay is T2, BRCA1 tBRCT (Homo sapiens, UniProt P38398).
T2 construct: BRCA1 tBRCT residues 1646-1859; made in house; host or cells: E. coli BL21(DE3)
Description: Competitive MST: inhibition of BACH1 phosphopeptide binding to BRCA1 tBRCT. The conditions noted are these: MST, BACH1 phosphopeptide vs BRCA1 tBRCT; mean ± SD of three experiments; NB, no binding. The procedure:
Protein domains used in the assay were labeled with NT-647-NHS fluorescent dye using the Monolith NT™ Protein Labeling Kit (NanoTemper Technologies). Assays were carried out in 20mM Tris buffer, pH 7.4, with 200mM NaCl, 0.05% Tween-20 and 2mM DTT. For the direct binding assay, 10μl of labeled protein at a final concentration of 20nM was mixed with 10μl of test compound and incubated on ice for 10 min. For the competitive assay, 10μl of labeled protein at a final concentration of 20nM was mixed with 2μM cognate peptide substrate at the EC80 concentration determined by prior titration using a 16-point serial dilution by direct-binding MST. For both assays, samples prepared as above were centrifuged at 15000 rpm at 4°C for 10 min and 4μl of the supernatant was loaded into premium glass capillaries (NanoTemper Technologies). MST analysis was performed at MST power of 40% and LED power of 80%, at 22°C temperature using a Monolith NT.115 (NanoTemper Technologies). An initial “Capillary Scan” was performed to scan for fluorescence across the length of the capillary tray to determine the exact position of each capillary before the MST measurement was started. Test compounds were assayed at 16 different concentrations by serial dilution, and data were analysed using NanoTemper analysis software. Kd values were determined using “T-jump + Thermophoresis” settings. The change in thermophoresis between different experimental conditions was expressed as the change in the normalized fluorescence (ΔFnorm), which is defined as Fhot/Fcold (F-values correspond to average fluorescence values between defined areas in the curve under steady-state conditions under control (Fcold) or experimental (Fhot) conditions. Titration of the non-fluorescent ligand causes a gradual change in thermophoresis, which is plotted as ΔFnorm to yield a binding curve, which was then fitted to derive binding constants.

A further assay deals with HEK293 cells. The assay can be described thus: Cell cycle profiles by flow cytometry after 4 Gy (damage-induced G2 arrest). The assay is classed as cell-based, human. The settings on record: 10–100 μM Bractoppin or 100 μM CCBT2047 added 0.5 hr before radiation. Here is the method:
HEK293 cells stably harboring plasmids for Tet-inducible expression of tBRCT domains were seeded on 12-well plates at 1.8 X10^5 cells/well. Cells were thymidine blocked and synchronously released into the cell cycle following irradiation at 4Gy, without or with exposure to compounds (at final concentrations with 0.5% DMSO) in serum-containing media for 16 h. Cells were re-suspended in 1x PBS, fixed with 80% ethanol, and permeabilized in buffer containing 0.1% Tween-20 in PBS (PBST), for 20’ at RT. DAPI staining was used to quantify nuclear DNA content. Analysis was performed using a Beckman Coulter Gallios analyzer, and quantified using the Dean-Jet algorithm in FlowJo software.

The subject of another assay is MDC1 foci. The assay can be described thus: Radiation-induced nuclear MDC1 foci, HEK293 cells. The settings on record: 100 μM added 6 hr after 16 Gy. The assay is classed as cell-based, human. Here is the method:
as §1

The next assay concerns BRCA1 foci. The assay can be described thus: Radiation-induced nuclear BRCA1 foci, high-content imaging, HEK293 cells. The assay is classed as cell-based, human. The conditions noted are these: 100 μM added 6 hr after 16 Gy, staining 18 hr after irradiation. The procedure: as §1

Consider `O=C(c1ccc2nc(-c3ccccc3)[nH]c2c1)N1CCN(Cc2ccccc2F)CC1` [Bractoppin, (4-(2-fluorobenzyl)piperazin-1-yl) (2-phenyl-1H-benzo[d]imidazol-6-yl) methanone], for which the “effect on RPA32 accumulation” value in the assay on RPA32 foci is reported as “little effect”. At TOPBP1 BRCT 1/2, the “binding to fluorescently labeled TOPBP1 1/2 tBRCT domain” value is given as “does not detectably bind”. The IC50 – broadly, the point on the concentration scale where inhibition reaches its midpoint – on BRCA1 tBRCT is 74 nM. Moreover, in the assay on HEK293 cells, the “effect on damage-induced G2 arrest” value is “inhibited in a dose-dependent manner”. Besides, the “effect on radiation-induced accumulation of MDC1 at sites of DNA damage” value with MDC1 foci is recorded as “little effect”. Further, the “effect on formation of radiation-induced BRCA1 foci” value in the assay on BRCA1 foci is reported as “inhibits the formation of radiation-induced BRCA1 foci; also recorded: selectively inhibits damage-induced BRCA1 foci formation”.
